Experimental data taken from the CheMixHub viscosity set.
± gives the uncertainty stated by the source.

Assay: xn = mol fraction of the nth substance listed

C1CCCCC1 + CCCCO
Conditions | viscosity [mPa·s]
298.15 K, 101 kPa, x1 = 0.1014 | 2.225 ± 0.015
298.15 K, 101 kPa, x1 = 0.1996 | 1.945 ± 0.014
298.15 K, 101 kPa, x1 = 0.2962 | 1.699 ± 0.014
298.15 K, 101 kPa, x1 = 0.4016 | 1.468 ± 0.013
298.15 K, 101 kPa, x1 = 0.5032 | 1.274 ± 0.012
298.15 K, 101 kPa, x1 = 0.597 | 1.123 ± 0.012
298.15 K, 101 kPa, x1 = 0.6908 | 1.02 ± 0.012
298.15 K, 101 kPa, x1 = 0.7923 | 0.9371 ± 0.011
298.15 K, 101 kPa, x1 = 0.8856 | 0.8954 ± 0.011
298.15 K, 101 kPa, x2 = 0.0216 | 0.876 ± 0.008
298.15 K, 101 kPa, x2 = 0.1208 | 0.903 ± 0.009
298.15 K, 101 kPa, x2 = 0.155 | 0.921 ± 0.009
298.15 K, 101 kPa, x2 = 0.1796 | 0.931 ± 0.009
298.15 K, 101 kPa, x2 = 0.3673 | 1.09 ± 0.01
298.15 K, 101 kPa, x2 = 0.532 | 1.357 ± 0.013
298.15 K, 101 kPa, x2 = 0.7128 | 1.752 ± 0.016
298.15 K, 101 kPa, x2 = 0.8385 | 2.07 ± 0.019
303.15 K, 101 kPa, x2 = 0.6491 | 1.196 ± 0.12
303.15 K, 101.33 kPa, x2 = 0.2111 | 0.9317 ± 0.012
303.15 K, 101.33 kPa, x2 = 0.298 | 0.9971 ± 0.012
303.15 K, 101.33 kPa, x2 = 0.4038 | 1.095 ± 0.013
303.15 K, 101.33 kPa, x2 = 0.489 | 1.187 ± 0.015
303.15 K, 101.33 kPa, x2 = 0.8096 | 1.719 ± 0.02
303.15 K, 101.33 kPa, x2 = 0.8981 | 1.941 ± 0.023
308.15 K, 101 kPa, x2 = 0.0216 | 0.745 ± 0.007
308.15 K, 101 kPa, x2 = 0.0714 | 0.754 ± 0.007
308.15 K, 101 kPa, x2 = 0.1208 | 0.765 ± 0.008
308.15 K, 101 kPa, x2 = 0.155 | 0.779 ± 0.008
308.15 K, 101 kPa, x2 = 0.1796 | 0.787 ± 0.008
308.15 K, 101 kPa, x2 = 0.3673 | 0.898 ± 0.009
308.15 K, 101 kPa, x2 = 0.532 | 1.089 ± 0.01
308.15 K, 101 kPa, x2 = 0.6491 | 1.083 ± 0.11
308.15 K, 101 kPa, x2 = 0.7128 | 1.387 ± 0.013
308.15 K, 101 kPa, x2 = 0.8385 | 1.627 ± 0.015
313.15 K, 101 kPa, x1 = 0.1014 | 1.547 ± 0.013
313.15 K, 101 kPa, x1 = 0.1996 | 1.363 ± 0.013
313.15 K, 101 kPa, x1 = 0.2962 | 1.203 ± 0.012
313.15 K, 101 kPa, x1 = 0.4016 | 1.054 ± 0.012
313.15 K, 101 kPa, x1 = 0.5032 | 0.934 ± 0.011
313.15 K, 101 kPa, x1 = 0.597 | 0.8408 ± 0.011
313.15 K, 101 kPa, x1 = 0.6908 | 0.7773 ± 0.011
313.15 K, 101 kPa, x1 = 0.7923 | 0.7265 ± 0.011
313.15 K, 101 kPa, x1 = 0.8856 | 0.6993 ± 0.011
313.15 K, 101 kPa, x2 = 0.6491 | 0.9869 ± 0.1
318.15 K, 101 kPa, x2 = 0.0216 | 0.643 ± 0.006
318.15 K, 101 kPa, x2 = 0.0714 | 0.645 ± 0.006
318.15 K, 101 kPa, x2 = 0.1208 | 0.652 ± 0.007
318.15 K, 101 kPa, x2 = 0.155 | 0.664 ± 0.007
318.15 K, 101 kPa, x2 = 0.1796 | 0.672 ± 0.007
318.15 K, 101 kPa, x2 = 0.3673 | 0.754 ± 0.007
318.15 K, 101 kPa, x2 = 0.532 | 0.895 ± 0.009
318.15 K, 101 kPa, x2 = 0.7128 | 1.114 ± 0.011
318.15 K, 101 kPa, x2 = 0.8385 | 1.298 ± 0.012

COCCOC + CCCCCCCCCO
101 kPa
Conditions | viscosity [mPa·s]
293.15 K, x1 = 0.05508 | 9.45 ± 0.12
293.15 K, x1 = 0.1012 | 7.813 ± 0.1
293.15 K, x1 = 0.2007 | 5.336 ± 0.068
293.15 K, x1 = 0.2922 | 3.86 ± 0.047
293.15 K, x1 = 0.393 | 2.747 ± 0.033
293.15 K, x1 = 0.494 | 1.994 ± 0.023
293.15 K, x1 = 0.5924 | 1.477 ± 0.016
293.15 K, x1 = 0.7015 | 1.076 ± 0.012
293.15 K, x1 = 0.7986 | 0.812 ± 0.009
293.15 K, x1 = 0.907 | 0.588 ± 0.006
293.15 K, x1 = 0.9472 | 0.524 ± 0.006
303.15 K, x1 = 0.04903 | 6.486 ± 0.087
303.15 K, x1 = 0.1035 | 5.323 ± 0.07
303.15 K, x1 = 0.2044 | 3.716 ± 0.047
303.15 K, x1 = 0.2954 | 2.745 ± 0.034
303.15 K, x1 = 0.3981 | 1.979 ± 0.024
303.15 K, x1 = 0.4938 | 1.485 ± 0.017
303.15 K, x1 = 0.5991 | 1.098 ± 0.012
303.15 K, x1 = 0.7049 | 0.816 ± 0.009
303.15 K, x1 = 0.7958 | 0.643 ± 0.007
303.15 K, x1 = 0.902 | 0.492 ± 0.005
303.15 K, x1 = 0.9436 | 0.446 ± 0.005
313.15 K, x1 = 0.05382 | 4.747 ± 0.064
313.15 K, x1 = 0.1054 | 4 ± 0.053
313.15 K, x1 = 0.2052 | 2.936 ± 0.037
313.15 K, x1 = 0.2949 | 2.233 ± 0.028
313.15 K, x1 = 0.3955 | 1.66 ± 0.02
313.15 K, x1 = 0.4901 | 1.279 ± 0.015
313.15 K, x1 = 0.5829 | 1.007 ± 0.011
313.15 K, x1 = 0.7 | 0.739 ± 0.008
313.15 K, x1 = 0.8016 | 0.58 ± 0.006
313.15 K, x1 = 0.9013 | 0.457 ± 0.005
313.15 K, x1 = 0.9469 | 0.41 ± 0.004

OCCNCCO + C[N+](C)(C)CCO.[Cl-]
viscosity [mPa·s], 101 kPa
Conditions | x2 = 0.091 | x2 = 0.111 | x2 = 0.143
293.15 K | 611.4 ± 38 | 565.3 ± 35 | 567 ± 35
313.15 K | 151.4 ± 7.5 | 150.4 ± 7.4 | 149.2 ± 7.3

CCC(C)=O + CC(C)CO
viscosity [mPa·s], 101.3 kPa
Conditions | x2 = 0.0854 | x2 = 0.1986 | x2 = 0.3001 | x2 = 0.3904 | x2 = 0.4974 | x2 = 0.5941 | x2 = 0.6983 | x2 = 0.7991 | x2 = 0.8965
298.15 K | 0.423 ± 0.004 | 0.477 ± 0.005 | 0.538 ± 0.005 | 0.613 ± 0.006 | 0.734 ± 0.007 | 0.885 ± 0.008 | 1.13 ± 0.011 | 1.5 ± 0.014 | 2.115 ± 0.021
308.15 K | 0.38 ± 0.004 | 0.426 ± 0.004 | 0.476 ± 0.005 | 0.535 ± 0.005 | 0.63 ± 0.006 | 0.748 ± 0.007 | 0.933 ± 0.009 | 1.206 ± 0.011 | 1.637 ± 0.016
318.15 K | 0.344 ± 0.004 | 0.382 ± 0.004 | 0.424 ± 0.004 | 0.473 ± 0.005 | 0.548 ± 0.005 | 0.64 ± 0.006 | 0.781 ± 0.007 | 0.983 ± 0.009 | 1.289 ± 0.013

CC(CC(C)(C)C)CP(=O)([O-])CC(C)CC(C)(C)C.CCCC[P+](C)(CCCC)CCCC (stereo not given) + CCCCCCCCCCCC
viscosity [mPa·s], 101 kPa
Conditions | 298.15 K | 303.15 K | 308.15 K | 313.15 K | 318.15 K | 323.15 K
x2 = 0.25 | 318 ± 15 | 214 ± 9 | 159 ± 6 | 112 ± 4 | 81.6 ± 2.8 | 60.6 ± 2.1
x2 = 0.43 | 88.6 ± 4.3 | 67.8 ± 2.2 | 53.6 ± 1.7 | 41.9 ± 1.3 | 34.4 ± 1.1 | 27.1 ± 0.9
x2 = 0.56 | 39.4 ± 1.2 | 31 ± 0.9 | 25.4 ± 0.8 | 21.7 ± 0.6 | 18.3 ± 0.5 | 16.1 ± 0.5

CCCCC(CC)COC(=O)CC(C(=O)OCC(CC)CCCC)S(=O)(=O)[O-].C[NH+]1C=CN=C1 (stereo not given) + O
99.6 kPa, x2 = 0.09474
Conditions | viscosity [mPa·s]
293.15 K | 3381 ± 210
303.15 K | 1440 ± 76
313.15 K | 684 ± 31
323.15 K | 359 ± 14

c1ccc2ncccc2c1 + COc1ccccc1O
303.15 K, 101 kPa
Conditions | viscosity [mPa·s]
x1 = 0.1 | 5.95 ± 0.16
x1 = 0.2 | 8.05 ± 0.22
x1 = 0.3 | 10.04 ± 0.27
x1 = 0.333 | 10.54 ± 0.29
x1 = 0.36 | 10.97 ± 0.3
x1 = 0.38 | 11.45 ± 0.31
x1 = 0.4 | 11.65 ± 0.32
x1 = 0.44 | 11.66 ± 0.32
x1 = 0.46 | 11.57 ± 0.32
x1 = 0.5 | 10.95 ± 0.3
x1 = 0.6 | 8.98 ± 0.24
x1 = 0.7 | 6.77 ± 0.18
x1 = 0.8 | 4.87 ± 0.13
x1 = 0.9 | 3.88 ± 0.1
